The test addresses recombinant human HPK1 (Homo sapiens (Human), UniProt Q92918). The test can be described thus: HPK1 kinase assay (ADP-Glo). The conditions noted are these: 25 μM ATP, MBP substrate. It is filed as biochemical. The essentials:
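Activity was read as ADP formed, detected by ADP-Glo luminescence after the reaction of 5 ng recombinant human HPK1 with MBP and ATP (stocks 0.5 μg/μl and 25 μM) for 40 min at 30 °C. Buffer was Tris pH 7.5 with MgCl2, BSA and DTT, with compound in 0.5% DMSO. IC50 came from inhibition curves.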
On the technique in general: ADP-Glo first removes unused ATP, then detects ADP through luciferase.
recombinant human HPK1, sequence (Q92918 whole entry): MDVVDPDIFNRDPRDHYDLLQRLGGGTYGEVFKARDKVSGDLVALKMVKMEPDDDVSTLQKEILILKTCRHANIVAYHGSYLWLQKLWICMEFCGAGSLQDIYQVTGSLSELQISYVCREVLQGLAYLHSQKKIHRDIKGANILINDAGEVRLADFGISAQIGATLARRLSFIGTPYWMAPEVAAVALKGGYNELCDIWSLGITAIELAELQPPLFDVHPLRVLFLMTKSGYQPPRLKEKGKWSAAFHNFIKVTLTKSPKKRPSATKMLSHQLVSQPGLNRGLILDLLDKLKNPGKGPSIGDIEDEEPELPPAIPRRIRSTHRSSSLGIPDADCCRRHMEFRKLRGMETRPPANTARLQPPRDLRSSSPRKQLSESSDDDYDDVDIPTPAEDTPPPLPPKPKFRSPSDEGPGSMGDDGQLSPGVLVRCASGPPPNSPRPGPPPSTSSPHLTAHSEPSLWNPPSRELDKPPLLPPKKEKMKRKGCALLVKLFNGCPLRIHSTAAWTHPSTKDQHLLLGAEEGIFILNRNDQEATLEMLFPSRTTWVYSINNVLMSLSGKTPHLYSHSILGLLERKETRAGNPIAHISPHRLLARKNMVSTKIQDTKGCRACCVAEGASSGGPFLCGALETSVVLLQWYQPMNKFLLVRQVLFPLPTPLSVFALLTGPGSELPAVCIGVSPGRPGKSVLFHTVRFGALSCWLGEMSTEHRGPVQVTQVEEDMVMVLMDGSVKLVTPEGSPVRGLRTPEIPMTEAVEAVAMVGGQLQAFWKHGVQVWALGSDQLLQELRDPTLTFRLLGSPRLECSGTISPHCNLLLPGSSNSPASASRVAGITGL
As a reminder, the IC50 is the concentration needed to halve the response being measured. On to `CCN(C)c1c(F)c(Cl)c(-c2ccc3nc(NC(=O)[C@@H]4C[C@@H]4F)sc3c2)c2cn[nH]c12` [Example 133, (1S,2S)-N-(6-(5-chloro-7-(ethyl(methyl)amino)-6-fluoro-1H-indazol-4-yl)benzo[d]thiazol-2-yl)-2-fluorocyclopropane-1-carboxamide], for which the IC50 was below 100 nM.

Regarding `Cc1c(F)c(OC(F)(F)F)c2[nH]ncc2c1-c1ccc2nc(NC(=O)[C@@H]3C[C@@H]3F)sc2n1` [Example 213, (1S,2S)-2-fluoro-N-(5-(6-fluoro-5-methyl-7-(trifluoromethoxy)-1H-indazol-4-yl)thiazolo[5,4-b]pyridin-2-yl)cyclopropane-1-carboxamide], the 50% inhibitory concentration (IC50) is above 1000 nM.

With `COC(C)(C)c1c(F)c(Cl)c(-c2ccc3nc(NC(=O)[C@@H]4C[C@@H]4F)cn3c2)c2cn[nH]c12` [Example 395, (1S,2S)-N-(6-(5-chloro-6-fluoro-7-(2-methoxypropan-2-yl)-1H-indazol-4-yl)imidazo[1,2-a]pyridin-2-yl)-2-fluorocyclopropane-1-carboxamide], the IC50 is below 100 nM.

For the molecule `NCCSc1c(F)c(Cl)c(-c2ccc3nc(NC(=O)[C@@H]4C[C@@H]4F)sc3c2)c2cn[nH]c12` [Example 70, (1S,2S)-N-(6-(7-((2-aminoethyl)thio)-5-chloro-6-fluoro-1H-indazol-4-yl)benzo[d]thiazol-2-yl)-2-fluorocyclopropane-1-carboxamide], the IC50 was below 100 nM.

Take `CC(NC(=O)C1CCC1)c1c(F)c(Cl)c(-c2ccn3nc(NC(=O)[C@@H]4C[C@@H]4F)cc3c2)c2cn[nH]c12` (stereo partly drawn) [Example 661, N-(1-(5-chloro-6-fluoro-4-(2-((1S,2S)-2-fluorocyclopropane-1-carboxamido)pyrazolo[1,5-a]pyridin-5-yl)-1H-indazol-7-yl)ethyl)cyclobutanecarboxamide]: the IC50 is below 100 nM.

Consider `CN(c1ccccn1)c1c(F)c(Cl)c(-c2ccc3nc(NC(=O)[C@@H]4C[C@@H]4F)cn3c2)c2cn[nH]c12` [Example 337, (1S,2S)-N-(6-(5-chloro-6-fluoro-7-(methyl(pyridin-2-yl)amino)-1H-indazol-4-yl)imidazo[1,2-a]pyridin-2-yl)-2-fluorocyclopropane-1-carboxamide], for which the IC50 is below 100 nM.

Consider `Nc1ccc2[nH]ncc2c1-c1ccc2nc(NC(=O)C3CC3)cn2c1` [Example 225, N-(6-(5-amino-1H-indazol-4-yl)imidazo[1,2-a]pyridin-2-yl)cyclopropanecarboxamide], for which the IC50 is above 1000 nM.

For `CN(Nc1c(F)c(Cl)c(-c2ccc3nc(NC(=O)[C@@H]4C[C@@H]4F)sc3n2)c2cn[nH]c12)C(=O)OC(C)(C)C` [Example 192, tert-butyl 2-(5-chloro-6-fluoro-4-(2-((1S,2S)-2-fluorocyclopropane-1-carboxamido)thiazolo[5,4-b]pyridin-5-yl)-1H-indazol-7-yl)-1-methylhydrazine-1-carboxylate], the IC50 was below 100 nM.

For `CN(CC#N)C(=O)c1c(F)c(Cl)c(-c2ccn3nc(NC(=O)[C@@H]4C[C@@H]4F)cc3c2)c2cn[nH]c12` [Example 612, 5-chloro-N-(cyanomethyl)-6-fluoro-4-(2-((1S,2S)-2-fluorocyclopropane-1-carboxamido)pyrazolo[1,5-a]pyridin-5-yl)-N-methyl-1H-indazole-7-carboxamide], the half-maximal inhibitory concentration (IC50) is below 100 nM.

As to `O=C(Nc1cn2cc(-c3c(Cl)c(F)c(Cl)c4[nH]ncc34)ccc2n1)[C@@H]1C[C@@H]1F` [Example 256, (1S,2S)-N-(6-(5,7-dichloro-6-fluoro-1H-indazol-4-yl)imidazo[1,2-a]pyridin-2-yl)-2-fluorocyclopropane-1-carboxamide], the IC50 was below 100 nM.

Turning to `N#Cc1c(F)c(Cl)c(-c2ccc3nc(NC(=O)[C@@H]4C[C@@H]4F)cn3c2)c2cn[nH]c12` [Example 351, (1S,2S)-N-(6-(5-chloro-7-cyano-6-fluoro-1H-indazol-4-yl)imidazo[1,2-a]pyridin-2-yl)-2-fluorocyclopropane-1-carboxamide], the IC50 was below 100 nM.

On to `N#Cc1c(F)c(Cl)c(-c2ccn3nc(NC(=O)[C@@H]4C[C@@H]4F)cc3c2)c2cn[nH]c12` [Example 586, (1S,2S)-N-(5-(5-chloro-7-cyano-6-fluoro-1H-indazol-4-yl)pyrazolo[1,5-a]pyridin-2-yl)-2-fluorocyclopropane-1-carboxamide], for which the IC50 is below 100 nM.

In the case of `Cc1c(F)c(Cl)c2[nH]nc(Cl)c2c1-c1cc(Cl)c2nc(NC(=O)[C@@H]3C[C@@H]3F)sc2c1` [Example 54, (1S,2S)-N-(4-chloro-6-(3,7-dichloro-6-fluoro-5-methyl-1H-indazol-4-yl)benzo[d]thiazol-2-yl)-2-fluorocyclopropane-1-carboxamide], the concentration for half-maximal inhibition (IC50) is above 1000 nM.

For the molecule `CC(C#N)Nc1c(F)c(Cl)c(-c2ccn3nc(NC(=O)[C@@H]4C[C@@H]4F)cc3c2)c2cn[nH]c12` (stereo partly drawn) [Example 641, (1S,2S)-N-(5-(5-chloro-7-((1-cyanoethyl)amino)-6-fluoro-1H-indazol-4-yl)pyrazolo[1,5-a]pyridin-2-yl)-2-fluorocyclopropane-1-carboxamide], the IC50 was below 100 nM.

Regarding `CSc1c(F)cc(-c2ccc3nc(NC(=O)[C@@H]4C[C@@H]4F)sc3c2)c2cn[nH]c12` [Example 141, (1S,2S)-2-fluoro-N-(6-(6-fluoro-7-(methylthio)-1H-indazol-4-yl)benzo[d]thiazol-2-yl)cyclopropane-1-carboxamide], the half-maximal inhibitory concentration (IC50) was above 1000 nM.

As for `Nc1c(Cl)cc2[nH]ncc2c1-c1ccc2nc(NC(=O)C3CC3)cn2c1` [Example 240, N-(6-(5-amino-6-chloro-1H-indazol-4-yl)imidazo[1,2-a]pyridin-2-yl)cyclopropanecarboxamide], the IC50 was 501 to 1000 nM.

With `CN(C)c1c(F)c(C(F)(F)F)c(-c2ccc3nc(NC(=O)[C@@H]4C[C@@H]4F)cn3c2)c2cn[nH]c12` [Example 307, (1S,2S)-N-(6-(7-(dimethylamino)-6-fluoro-5-(trifluoromethyl)-1H-indazol-4-yl)imidazo[1,2-a]pyridin-2-yl)-2-fluorocyclopropane-1-carboxamide], the concentration for half-maximal inhibition (IC50) was below 100 nM.

Turning to `C[C@H](c1c(F)c(Cl)c(-c2ccc3nc(NC(=O)[C@@H]4C[C@@H]4F)cn3c2)c2cn[nH]c12)n1cnnn1` [Example 413], the IC50 was below 100 nM.

Take `O=C(Nc1nc2ccc(-c3c(Cl)c(F)c(SCCCO)c4[nH]ncc34)cc2s1)[C@@H]1C[C@@H]1F` [Example 86, (1S,2S)-N-(6-(5-chloro-6-fluoro-7-((3-hydroxypropyl)thio)-1H-indazol-4-yl)benzo[d]thiazol-2-yl)-2-fluorocyclopropanecarboxamide]: the IC50 is below 100 nM.

With `C[S+]([O-])c1c(F)c(Cl)c(-c2ccc3nc(NC(=O)[C@@H]4C[C@@H]4F)sc3n2)c2cn[nH]c12` (stereo partly drawn) [Example 180, (1S,2S)-N-(5-(5-chloro-6-fluoro-7-(methylsulfinyl)-1H-indazol-4-yl)thiazolo[5,4-b]pyridin-2-yl)-2-fluorocyclopropane-1-carboxamide], the concentration for half-maximal inhibition (IC50) was 101 to 500 nM.

For the molecule `COCC1CN(c2c(F)c(Cl)c(-c3ccn4nc(NC(=O)[C@@H]5C[C@@H]5F)cc4c3)c3cn[nH]c23)C1` [Example 627, (1S,2S)-N-(5-(5-chloro-6-fluoro-7-(3-(methoxymethyl)azetidin-1-yl)-1H-indazol-4-yl)pyrazolo[1,5-a]pyridin-2-yl)-2-fluorocyclopropane-1-carboxamide], the concentration for half-maximal inhibition (IC50) is below 100 nM.

Consider `CN(C)C(=O)c1ccn(-c2c(F)c(Cl)c(-c3ccn4nc(NC(=O)[C@@H]5C[C@@H]5F)cc4c3)c3cn[nH]c23)c1` [Example 649, 1-(5-chloro-6-fluoro-4-(2-((1S,2S)-2-fluorocyclopropane-1-carboxamido)pyrazolo[1,5-a]pyridin-5-yl)-1H-indazol-7-yl)-N,N-dimethyl-1H-pyrrole-3-carboxamide], for which the IC50 is below 100 nM.

For the molecule `O=C(Nc1cc2cc(-c3c(C(F)(F)F)ccc4[nH]ncc34)ccn2n1)[C@@H]1C[C@@H]1F` [Example 451, (1S,2S)-2-fluoro-N-(5-(5-(trifluoromethyl)-1H-indazol-4-yl)pyrazolo[1,5-a]pyridin-2-yl)cyclopropane-1-carboxamide], the half-maximal inhibitory concentration (IC50) is below 100 nM.

In the case of `O=C(Nc1cc2cc(-c3c(Cl)c(F)c(N4CCNCC4)c4[nH]ncc34)ccn2n1)[C@@H]1C[C@@H]1F` [Example 500, (1S,2S)-N-(5-(5-chloro-6-fluoro-7-(piperazin-1-yl)-1H-indazol-4-yl)pyrazolo[1,5-a]pyridin-2-yl)-2-fluorocyclopropane-1-carboxamide], the IC50 fell in the range of 101 to 500 nM.

For `CNC(C)c1c(F)c(Cl)c(-c2ccc3nc(NC(=O)[C@@H]4C[C@@H]4F)cn3c2)c2cn[nH]c12` (stereo partly drawn) [Example 402, (1S,2S)-N-(6-(5-chloro-6-fluoro-7-(1-(methylamino)ethyl)-1H-indazol-4-yl)imidazo[1,2-a]pyridin-2-yl)-2-fluorocyclopropane-1-carboxamide], the IC50 fell in the range of 101 to 500 nM.

As for `CN1CCN(c2c(F)c(Cl)c(-c3ccn4nc(NC(=O)[C@@H]5C[C@@H]5F)cc4c3)c3cn[nH]c23)CC1` [Example 495, (1S,2S)-N-(5-(5-chloro-6-fluoro-7-(4-methylpiperazin-1-yl)-1H-indazol-4-yl)pyrazolo[1,5-a]pyridin-2-yl)-2-fluorocyclopropane-1-carboxamide], the IC50 was below 100 nM.

As to `Cn1nnnc1-c1c(F)c(Cl)c(-c2ccn3nc(NC(=O)[C@@H]4C[C@@H]4F)cc3c2)c2cn[nH]c12` [Example 594, (1S,2S)-N-(5-(5-chloro-6-fluoro-7-(1-methyl-1H-tetrazol-5-yl)-1H-indazol-4-yl)pyrazolo[1,5-a]pyridin-2-yl)-2-fluorocyclopropane-1-carboxamide], the IC50 was below 100 nM.

`CNC(=O)c1c(F)c(Cl)c(-c2ccc3nc(NC(=O)[C@@H]4C[C@@H]4F)sc3n2)c2cn[nH]c12` [Example 195, 5-chloro-6-fluoro-4-(2-((1S,2S)-2-fluorocyclopropane-1-carboxamido)thiazolo[5,4-b]pyridin-5-yl)-N-methyl-1H-indazole-7-carboxamide]: the IC50 lay within 101 to 500 nM.

The values are drawn from patent publication US11649255B2, “Indazoles as hematopoietic progenitor kinase 1 (HPK1) inhibitors and methods using same” (1st Biotherapeutics, Inc., priority 2020, dated 2023).
